Measured values as given in patent publication US20260035367A1 (Celgene Corporation, priority 2021, published 2026).
Where two headings read alike, the source gives them in different places.

How the values were obtained:
[1] = test system: IL-2 secretion by human effector memory T cells (TEM); test: Effector memory T cells IL-2 release assay (CD3/CD28 stimulation, HTRF IL-2 detection); type: cell-based; conditions: 24 h; for IC50: Homo sapiens, T-cell
Outline: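 IL-2 released into the supernatant was quantified by HTRF after 24 h at 37 °C in 5% CO2. The cells were stimulated primary human TEM from donor buffy coats, treated with a 10-point semi-log compound series (0.1% DMSO final, triplicates).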

[2] = molecular target: T1, Recombinant human PKC-delta (His-tagged 345-676) (Homo sapiens, UniProt Q05655); test: PKC-delta inhibition assay (HTRF KinEASE kit); type: biochemical; conditions: ratio, PKC-theta vs PKC-delta HTRF; for PKC-theta/PKC-delta selectivity (binned): binned A to G
T1 construct: PKC-delta (His-tagged 345-676); His
T1 sequence (Q05655 345-676): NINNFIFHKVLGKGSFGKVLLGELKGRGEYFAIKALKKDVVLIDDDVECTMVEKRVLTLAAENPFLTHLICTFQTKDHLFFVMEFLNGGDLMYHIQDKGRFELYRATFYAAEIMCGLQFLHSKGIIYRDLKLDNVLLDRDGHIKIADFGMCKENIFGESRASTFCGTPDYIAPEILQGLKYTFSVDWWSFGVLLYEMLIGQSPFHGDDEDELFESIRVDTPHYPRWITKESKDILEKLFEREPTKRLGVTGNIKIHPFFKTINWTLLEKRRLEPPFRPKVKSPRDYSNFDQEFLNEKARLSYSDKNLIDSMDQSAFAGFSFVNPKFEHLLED

[3] = molecular target: T2, Recombinant human PKC-theta (His-tagged 362-706) (Homo sapiens, UniProt Q04759); test: PKC-theta inhibition assay (HTRF KinEASE kit); type: biochemical; conditions: ATP 6.5 μM, STK substrate 525 nM
T2 construct: Recombinant human PKC-theta (His-tagged 362-706); His
T2 sequence (Q04759 362-706): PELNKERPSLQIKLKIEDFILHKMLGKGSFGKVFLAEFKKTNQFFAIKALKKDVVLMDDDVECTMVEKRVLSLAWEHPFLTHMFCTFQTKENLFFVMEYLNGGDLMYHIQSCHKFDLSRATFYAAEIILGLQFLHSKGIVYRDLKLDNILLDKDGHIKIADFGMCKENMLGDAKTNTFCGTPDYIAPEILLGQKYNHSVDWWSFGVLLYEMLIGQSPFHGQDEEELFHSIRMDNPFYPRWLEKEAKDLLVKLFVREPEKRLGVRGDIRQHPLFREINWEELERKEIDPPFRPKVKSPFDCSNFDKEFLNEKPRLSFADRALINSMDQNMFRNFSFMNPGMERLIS
Outline: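 IC50 values were from 4-parameter logistic fits of percent inhibition, based on acceptor/donor HTRF ratios over 10 semi-log compound doses. Kinase reactions, started with substrate plus ATP, ran 30 min at 25 °C in buffer supplemented with 10 mM MgCl2, 1 mM DTT and 0.1% Tween 20; detection lasted 2 h.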

[4] = binned A to G, read-out: PKC-theta IL2 pIC50 (binned) (converted)
[5] = read-out: PKC-theta IL2 pIC50 (converted)
[6] = binned A to H, read-out: PKC-theta HTRF pIC50 (binned) (converted)
[7] = read-out: PKC-theta HTRF pIC50 (converted)

Row | Structure (SMILES) | IC50 [1, 4] | IC50 [1, 5] | PKC-theta/PKC-delta selectivity [2] | PKC-theta/PKC-delta selectivity (binned) [2] | IC50 [3, 6] | IC50 [3, 7] | PKC-theta IL2 pIC50 [1] | PKC-theta IL2 pIC50 (binned) ([1]; binned A to G)
1 | C[C@@H]1CN(c2cc(C(F)(F)F)cc(-c3ccnc4c3C(C)(C)C(=O)N4)n2)[C@H](C)CN1 [Example 178] | 31.6 to 100 nM | 63.1 nM | 20 | D (a ratio of between 10 and 20) | 1 to 3.16 nM | 3.16 nM |  | 
2 | O=c1[nH]c2nccc(-c3cc(F)cc(N4CCNCC4)c3)c2[nH]1 [Example 7] | > 1000 nM | 2510 nM | 2 | F (a ratio of between 1 and 5) | 100 to 316 nM | 100 nM |  | 
3 | C[C@@H]1CNCCN1c1cc(Cl)cc(-c2c(F)cnc3c2C(C)(C)C(=O)N3)n1 [Example 155] | 31.6 to 100 nM | 50.1 nM | 17 | D (a ratio of between 10 and 20) | 3.16 to 10 nM | 3.98 nM |  | 
4 | CCC1(C)C(=O)Nc2nccc(-c3cc(Cl)cc(N4CCN[C@@H](C)C4)n3)c21 (stereo partly drawn) [Example 147] | 31.6 to 100 nM | 31.6 nM | 10 | D (a ratio of between 10 and 20) | 1 to 3.16 nM | 2.51 nM |  | 
5 | CC1(C)C(=O)Nc2nccc(-c3cc(C(F)(F)F)cc(N4CCN[C@H]5COC[C@H]54)n3)c21 [Example 192] | 100 to 316 nM | 158 nM | 31 | B (a ratio of between 30 and 50) | 3.16 to 10 nM | 3.98 nM |  | 
6 | C[C@@]1(O)C(=O)Nc2nccc(-c3cc(C(F)(F)F)cc(N4CCNC5CC54)n3)c21 (single isomer, unassigned) [Example 96] | 100 to 316 nM | 200 nM | 10 | E (a ratio of between 5 and 10) | 3.16 to 10 nM | 5.01 nM |  | 
7 | C[C@H]1CNCCN1c1cc(Cl)cc(-c2ccnc3c2[C@](C)(O)C(=O)N3)n1 (single isomer, unassigned) [Example 104] | 100 to 316 nM | 126 nM | 11 | D (a ratio of between 10 and 20) | 3.16 to 10 nM | 5.01 nM |  | 
8 | CC1(C)C(=O)Nc2nccc(-c3cc(C(F)(F)F)cc(N4CCNC5(CC5)C4)n3)c21 [Example 84] | 316 to 1000 nM | 316 nM | 14 | D (a ratio of between 10 and 20) | 3.16 to 10 nM | 7.94 nM |  | 
9 | C[C@@H]1CNCCN1c1cc(C(F)(F)F)cc(-c2ccnc3c2[C@](C)(O)C(=O)N3)n1 (single isomer, unassigned) [Example 94] | 10 to 31.6 nM | 20 nM | 9 | E (a ratio of between 5 and 10) | 1 to 3.16 nM | 2 nM |  | 
10 | CC[C@H]1CN(c2cc(Cl)cc(-c3ccnc4c3C(C)(OC)C(=O)N4)n2)CCN1 (stereo partly drawn) [Example 130] | 100 to 316 nM | 158 nM | 8 | E (a ratio of between 5 and 10) | 3.16 to 10 nM | 7.94 nM |  | 
11 | CC1(C)C(=O)Nc2nccc(-c3cc(C(F)(F)F)nc(N4CCNCC4)n3)c21 [Example 98] | 100 to 316 nM | 316 nM | 15 | D (a ratio of between 10 and 20) | 10 to 31.6 nM | 20 nM |  | 
12 | CC1(O)C(=O)Nc2nccc(-c3cc(F)cc(N4CCNCC4)c3)c21 (stereo not drawn) [Example 46] | 100 to 316 nM | 251 nM | 3 | F (a ratio of between 1 and 5) | 10 to 31.6 nM | 12.6 nM |  | 
13 | CC1(C)C(=O)Nc2ncc(Cl)c(-c3cc(F)cc(N4CCNCC4)c3)c21 [Example 79] | 316 to 1000 nM | 794 nM | 2 | F (a ratio of between 1 and 5) | 31.6 to 100 nM | 39.8 nM |  | 
14 | C[C@@H]1CNCCN1c1cc(F)cc(-c2ccnc3c2C(C)(O)C(=O)N3)c1 (stereo partly drawn) [Example 59] | 100 to 316 nM | 126 nM | 5 | F (a ratio of between 1 and 5) | 3.16 to 10 nM | 5.01 nM |  | 
15 | CO[C@]1(C)C(=O)Nc2nccc(-c3cc(C(F)(F)F)cc(N4CCNC[C@H]4C)n3)c21 (single isomer, unassigned) [Example 158] | 100 to 316 nM | 200 nM | 10 | E (a ratio of between 5 and 10) | 3.16 to 10 nM | 6.31 nM |  | 
16 | CC1C(=O)Nc2nccc(-c3cccc(CN4CCNCC4)c3)c21 (stereo not drawn) [Example 19] | > 1000 nM | 2000 nM | 2 | F (a ratio of between 1 and 5) | 100 to 316 nM | 200 nM |  | 
17 | C[C@H]1CN(c2cc(-c3ccnc4c3[C@@](C)(O)C(=O)N4)cc(C(F)(F)F)c2)CCN1 (single isomer, unassigned) [Example 82] |  |  | 3 | F (a ratio of between 1 and 5) | 316 to 1000 nM | 1000 nM | 5.4 | G (a measured pIC50<6.0)
18 | CC[C@]1(C)C(=O)Nc2nccc(-c3cc(C(F)(F)F)cc(N4CCNC[C@H]4C)n3)c21 (single isomer, unassigned) [Example 197] | 10 to 31.6 nM | 15.8 nM | 14 | D (a ratio of between 10 and 20) | 0.316 to 1 nM | 1 nM |  | 
19 | C[C@H]1CCN(c2cc(C(F)(F)F)cc(-c3ccnc4c3C(C)(C)C(=O)N4)n2)CCN1 [Example 183] | 100 to 316 nM | 126 nM | 25 | C (a ratio of between 20 and 30) | 3.16 to 10 nM | 6.31 nM |  | 
20 | C[C@@H](O)[C@H]1CN(c2cc(C(F)(F)F)cc(-c3ccnc4c3C(C)(C)C(=O)N4)n2)CCN1 [Example 116] | 100 to 316 nM | 126 nM | 10 | D (a ratio of between 10 and 20) | 3.16 to 10 nM | 5.01 nM |  | 
21 | CC[C@]1(C)C(=O)Nc2nccc(-c3cc(Cl)cc(N4CCN[C@@H](C)C4)n3)c21 (single isomer, unassigned) [Example 171] | 31.6 to 100 nM | 39.8 nM | 9 | E (a ratio of between 5 and 10) | 1 to 3.16 nM | 2.51 nM |  | 
22 | O=c1[nH]c2nccc(-c3cccc(N4CCNCC4)c3)c2[nH]1 [Example 2] | > 1000 nM | 10000 nM | 2 | F (a ratio of between 1 and 5) | 316 to 1000 nM | 501 nM |  | 
23 | O=C1Cc2c(-c3cccc(N4CCNCC4)c3)ccnc2N1 [Example 4] | > 1000 nM | 5010 nM | 8 | E (a ratio of between 5 and 10) | 100 to 316 nM | 251 nM |  | 
